According to PMC9394474 (Viruses, 2022):
Several values for one entry are separate records, joined by “and”; a condition that tells them apart may be missing. Identical values can stand only once. Like-named read-outs stand apart in the source and are kept apart here. Ends that are not written are not given here. Peptide text beside a SMILES is read from it.

Biological target: human hisTRIM7-PRYSPRY (Homo sapiens, UniProt Q9C029)
Assay: ITC binding to human TRIM7 PRYSPRY (wild type)

| Molecule | Kd | Kd (KD, ITC, one-site model, 15 °C, 50 mM phosphate pH 6.5, 1 mM DTT, TRIM7 500 µM, ligand 100 µM (peptide 50 µM), representative trace and fit) [µM] |
| --- | --- | --- |
| CC(=O)N[C@@H](CC(C)C)C(=O)N[C@@H](CC(C)C)C(=O)N[C@@H](CCC(N)=O)C(=O)O [Ac-LLQ] (Ac-Leu-Leu-Gln-OH) | 38.7 ± 5.16 µM | – |
| CC(C)C[C@H](N)C(=O)N[C@@H](CCC(N)=O)C(=O)O [LQ] (H-Leu-Gln-OH) | 201 ± 30 µM | – |
| AAAAALQ [polyA-LQ] | 8.92 µM and 8 µM | – |
| AIEALFQ [AIEALFQ] | 17 ± 4.3 µM | – |
| DNIKKKLDTYLQ [rbGYG322-333] | – | 21 ± 1.8 |
